Data published in patent US20160303094A1, “PHARMACEUTICAL COMPOSITIONS COMPRISING ANTIBACTERIAL AGENTS” (priority 2013, published 2016).
Structures can show the parent of a compound that is named as a salt.

Tested on: A. baumannii S 226 strain producing CHDL Oxacillinases (OXA 51, OXA-23)
Assay: Time-kill study: viable bacterial count in Mueller Hinton broth
Assay type: cell-based, Acinetobacter baumannii
Conditions: for Bacterial count: initial count 6.62 log CFU/ml
Procedure: The antibacterial activity of compositions according to the invention against various bacterial strains was investigated. In a typical study, freshly grown cultures were diluted to required cell density (initial starting inoculum) in Mueller Hinton broth medium (BD, USA). The antibacterial agents, either alone or in combination, at required concentrations were added into the medium containing the desired initial starting inoculum. The samples were incubated under shaking condition (120 rpm) at 37° C. Enumeration of viable bacterial count was undertaken, every 2 hours, by diluting in normal saline and plating on to the Tryptic Soya Agar plates (BD, USA). The plates were incubated for 24 hours to arrive at the viable bacterial count. The antibacterial activity is expressed in terms of Colony Forming Units (CFU). The decrease of 1 Log CFU/ml, after administration of combination of present invention, in comparison to initial bacterial count corresponds to 90% killing of bacteria. Similarly, 2 Log CFU/ml reductions corresponds to 99% killing of bacteria and 3 Log CFU/ml reductions is equal to 99.9% killing of bacteria.
The combination according to invention was tested against highly resistant A. baumannii S 226 strain producing Carbapenem hydrolyzing (CHDL) Oxacillinases [OXA-51, OXA-23]. The assay without any antibacterial agent was taken as control.

[1] = 2 hours, active ingredient alone at 8 mcg/ml
[2] = 4 hours, active ingredient alone at 8 mcg/ml
[3] = 6 hours, active ingredient alone at 8 mcg/ml
[4] = 8 hours, active ingredient alone at 8 mcg/ml
[5] = 24 hours, active ingredient alone at 8 mcg/ml

| SMILES | Bacterial count [1] [Log10 CFU/ml] | Bacterial count [2] [Log10 CFU/ml] | Bacterial count [3] [Log10 CFU/ml] | Bacterial count [4] [Log10 CFU/ml] | Bacterial count [5] [Log10 CFU/ml] | decrease of the bacterial count of A. baumannii throughout the duration of the study (used alone at 8 mcg/ml) | Bacterial count (2 hours, active ingredient alone at 4 mcg/ml) [Log10 CFU/ml] | Bacterial count (4 hours, active ingredient alone at 4 mcg/ml) [Log10 CFU/ml] | Bacterial count (6 hours, active ingredient alone at 4 mcg/ml) [Log10 CFU/ml] | Bacterial count (8 hours, active ingredient alone at 4 mcg/ml) [Log10 CFU/ml] | Bacterial count (24 hours, active ingredient alone at 4 mcg/ml) [Log10 CFU/ml] | decrease of the bacterial count of A. baumannii throughout the duration of the study (used alone at 4 mcg/ml) |
| --- | --- | --- | --- | --- | --- | --- | --- | --- | --- | --- | --- | --- |
| C[C@@H](O)[C@H]1C(=O)N2C(C(=O)O)=C(S[C@@H]3CN[C@H](CNS(N)(=O)=O)C3)[C@H](C)[C@H]12 [Doripenem] | 7.95 | 8.08 | 8.12 | 8.50 | 8.30 | failed to decrease the bacterial count | – | – | – | – | – | – |
| C[C@@H](O)[C@H]1C(=O)N2C(C(=O)O)=C(SCCN=CN)C[C@H]12 [Imipenem] | 7.46 | 8.26 | 8.43 | 8.52 | 8.74 | – | – | – | – | – | – | – |
| C[C@@H](O)[C@H]1C(=O)N2C(C(=O)O)=C(S[C@@H]3CN[C@H](C(=O)N(C)C)C3)[C@H](C)[C@H]12 [Meropenem] | 8.00 | 8.34 | 8.45 | 8.65 | 8.70 | failed to decrease the bacterial count | – | – | – | – | – | – |
| N#C[C@@H]1CC[C@@H]2CN1C(=O)N2OS(=O)(=O)O [Sodium salt of a compound of Formula (I), sodium salt of sulphuric acid, mono[(1R,2S,5R)-2-cyano-7-oxo-1,6-diazabicyclo[3.2.1]oct-6-yl] ester] | – | – | – | – | – | – | 7.93 | 7.95 | 8.20 | 8.50 | 8.60 | failed to decrease the bacterial count |
